Values joined by “and” are separate entries in the source; they are usually repeats but may differ in a detail not shown here. Identical values can stand only once.
Assays:
NF-κB = experiment: TNF-α-induced NF-κB reporter assay in LS174T PXR-KO cells; details: for NFkB NanoLuc luminescence, aver / NFkB %max: LS174T PXR-KO, EXP3; for NFkB %max: TNFa 5 ng/ml = 100
From the text: In early passage PXR‐KO cells, we used PXR and NF‐κB reporter‐co‐transfected and NF‐κB reporter‐transfected PXR‐KO cell line.
CRISPR/Cas9‐mediated knockout cells were generated by Synthego Corporation (Redwood City, CA, USA). Briefly, cells were first tested negative for mycoplasma. Guide RNA was selected for high activity, specificity, and activity to create premature stop codons through frameshift mutations in the coding region via insertions and/or deletions (Indels) within exon 2 of the gene encoding human PXR (NR1I2 transcript ID ENST00000337940). […] To generate these cells, ribonucleoproteins (RNPs) containing the Cas9 protein and synthetic chemically modified sgRNA (Synthego) were electroporated into the cells using Synthego's optimized protocol. Editing efficiency is assessed upon recovery, 48 h post‐electroporation. Genomic DNA is extracted from a portion of the cells, PCR‐amplified, and sequenced using Sanger sequencing. The resulting chromatograms are processed using Synthego Inference of CRISPR Edits software (ice.synthego.com).

mice = experiment: 30 Day toxicity study in mice; format: in vivo, mouse
Method: The LS180 cell line was used to assess cell cytotoxicity using the MTT (3‐(4,5‐dimethylthiazolyl‐2)‐2,5‐diphenyltetrazolium bromide) assay as previously described (Bartonkova et al, 2015, 2016). […] FKK6 was selected as a lead compound for assessment, given that it had the more favorable PXR‐selective ligand activity in cells. […] The mice were gavaged for ten consecutive days and necropsied on day 12 with the collection of blood (serum). […] Similarly, a 30‐day toxicity test was conducted in mice using FKK6 at an oral dose of 200 μM in 0.8% DMSO per day. We chose this dose to stay within the safe DMSO dose administered to mice over 30 days. On day 30, we necropsied the mice and collected blood (serum).

SIRT1 = target: T1, SIRT1 (Homo sapiens, UniProt Q96EB6); experiment: Sirtuin (SIRT1) assay; format: biochemical; details: substrate Acetylated peptide, replicates
T1 construct: full -length N-terminal His-tag protein (MW 83.2 kDa); His-tag (N); purchased Reaction Biology Corp; host or cells: E. coli
Method: Software Tool and reprinted with permission from KINOME scan®, a division of DiscoveRx […]
The following […] assays (HDAC, SIRT1, PRMT1, PARP1, p300, pCAF) were performed by Reaction Biology Corp. FKK6 was screened at a single concentration of 10 μM in duplicate in two separate experiments. The appropriate controls for the individual assays are published. The overall […]
enzyme activity in the assay is reported as a % activity in DMSO control wells. Control IC50 […]
Briefly, for the Sirtuin (SIRT1) assay, human SIRT1 (GenBank
Accession No. NM012238) full -length N-terminal His-tag protein (MW 83.2 kDa) was purified after expression in E. coli. The reaction buffer was freshly prepared and constituted 50 mM Tris-HC l ( p H 8), 137 mM NaCl, 2.7 mM KCl, 1 mM MgCl2, and just before use, 1 mg/mL BSA and 1% DMSO was added. The substrate was a fluorogenic acetylated peptide of p53 residues 379-382 (RHKK (Ac)- AM C) . In th e multi-well format, the 2X enzyme was mixed with the reaction buffer followed by compound (in 100% DMSO) titration via Acoustic technology (Echo550; LabCyte Inc, Sunnyvale, CA) in the nanoliter range. The mixture was spun down and 2X substrate (including NAD+) was added to initiate the reaction at 30° C at 2h under seal. […] Fluorescence kinetic measurements were conducted for 1.5 h in 15 min intervals using Envision (Ex 360nm/Em 460nm). […]

[1] = oral 200 μM in 0.8% DMSO per day, 30 days

T1 sequence (Q96EB6 whole entry): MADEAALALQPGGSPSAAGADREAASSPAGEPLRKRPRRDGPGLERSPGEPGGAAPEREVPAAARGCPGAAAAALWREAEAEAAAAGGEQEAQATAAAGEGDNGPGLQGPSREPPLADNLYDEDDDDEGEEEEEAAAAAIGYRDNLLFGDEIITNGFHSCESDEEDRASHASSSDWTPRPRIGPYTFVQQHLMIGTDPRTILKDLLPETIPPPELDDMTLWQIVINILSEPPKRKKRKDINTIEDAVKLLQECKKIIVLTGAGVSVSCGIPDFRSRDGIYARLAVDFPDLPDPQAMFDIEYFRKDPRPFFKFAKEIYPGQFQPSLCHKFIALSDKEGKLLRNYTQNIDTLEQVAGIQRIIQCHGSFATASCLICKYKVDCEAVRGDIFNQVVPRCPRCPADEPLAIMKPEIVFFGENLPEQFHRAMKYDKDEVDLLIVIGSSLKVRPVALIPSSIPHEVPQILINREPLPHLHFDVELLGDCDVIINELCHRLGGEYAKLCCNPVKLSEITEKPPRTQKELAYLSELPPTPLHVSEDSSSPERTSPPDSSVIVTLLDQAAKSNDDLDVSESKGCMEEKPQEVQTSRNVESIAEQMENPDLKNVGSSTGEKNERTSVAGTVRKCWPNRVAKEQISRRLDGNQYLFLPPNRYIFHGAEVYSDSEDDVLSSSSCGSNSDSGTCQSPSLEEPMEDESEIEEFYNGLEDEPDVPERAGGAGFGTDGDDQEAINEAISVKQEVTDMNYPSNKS

C#CCC(O)(c1ccncc1)c1cc2ccccc2n1S(=O)(=O)c1ccccc1 (centres unmarked) [FKK6]
NFkB NanoLuc luminescence, aver (NF-κB; 1 μM + TNFα 5 ng/ml): 70912.7
NFkB %max (NF-κB; 1 μM + TNFα 5 ng/ml): 128.7% and 128.74%
NFkB NanoLuc luminescence, aver (NF-κB; 10 μM + TNFα 5 ng/ml): 56963.0
NFkB %max (NF-κB; 10 μM + TNFα 5 ng/ml): 103.4% and 103.41%
NFkB NanoLuc luminescence, aver (NF-κB; 25 μM + TNFα 5 ng/ml): 50715.5
NFkB %max (NF-κB; 25 μM + TNFα 5 ng/ml): 92.1% and 92.07%
NF-κB reporter activity (NF-κB; TNF-exposed PXR-KO cells): neither rifampicin nor FKK6 repressed
Histopathology: Liver (mice; 30 day, n=6): Mild perivascular lymphohistiocytic aggregates (n=4)
Histopathology: Lung (mice; 30 day, n=6): Mild leukocytes (n=2)
Histopathology: Spleen (mice; 30 day, n=6): Mild lymphoid hyperplasia (n=2)
serum chemistry profiles (mice; [1]): did not significantly alter serum chemistry profiles
tissue pathology vs vehicle (mice; [1]): did not significantly alter serum chemistry profiles (Fig EV3C and D) or impact tissue pathology
% Enzyme Activity to DMSO controls (SIRT1; 10 μM): 100.03% and 99.84% and 94.47%
remaining activity at 10 µM (SIRT1; read-out: % Enzyme Activity to DMSO controls): 100%
